Experimental data published in US20240400606A1, “SMALL MOLECULE ACTIVATORS OF THE IMMUNE SYSTEM” (THE BOARD OF TRUSTEES OF THE UNIVERSITY OF ILLINOIS, priority 2021, published 2024).
“Also recorded” adds a separate entry of the source.

Assays:
[1] = biological target: human carbonic anhydrase II (hCAII) (Homo sapiens (Human), UniProt P00918); assay: Human carbonic anhydrase II assay; assay type: biochemical; settings: concentrations up to 200 μM; listed as IB:10:D
Protocol: Human Carbonic Anhydrase II Assay. Stock solutions of compound of interest (in DMSO), acetazolamide (10 μM in DMSO), hCAII solution (65 μL of 33 μM stock to 1.935 mL hCAII assay buffer to make 1 μM hCAII solution), and 4-nitrophenylacetate (4-NPA; 60 μL of 100 mM DMSO stock to 3 mL hCAII assay buffer to make 2 mM 4-NPA solution). To the wells of a 384-well clear bottom plate were added 1 μL compound of interest or 10 μM acetazolamide. 20 μL of hCAII solution was added to all wells except no enzyme control well, in which case 20 μL hCAII assay buffer was added instead. Plates were incubated for 11 minutes at room temperature before addition of 4-NPA solution to all wells. Absorbance at 348 nm was read every 10 seconds of 11 minute total run time. Three technical replicates were assessed per plate. Controls: hCAII+4-NPA (DMSO added in place of compound of interest, DMSO control), 4-NPA background (no enzyme, DMSO added in place of compound of interest, 4-NPA control), hCAII+4-NPA+acetazolamide (acetazolamide added in place of compound of interest, known hCAII inhibitor).
Percent inhibition calculated as: 100−[100×[(AbSaverage, compound of interest−AbSaverage, 4-NPA)/(AbSaverage, DMSO−AbSaverage, 4-NPA)]].

SULT2B1b = SULT2B1b (Homo sapiens (Human), UniProt O00204); assay: Compound aggregation assay (LC-MS/MS assay with BSA decoy protein); assay type: biochemical; settings: decoy protein BSA 0.1 mg/mL, dose response; listed as IB:10:D
Protocol: Compound Aggregation Assay. Stock solutions of DHEA (5 mM in DMSO) and compound of interest (5 mM in DMSO) were prepared. For each 60 μL reaction, to a 1.5 mL Eppendorf tube was added 26.7 μL 1× assay buffer supplemented with 0.2 mg/mL bovine serum albumin (BSA) and 1.2 μL compound of interest or DMSO. BSA-containing 1× assay buffer and compound of interest were incubated at room temperature for 5 minutes before addition of 1.2 μL of 5 mM DHEA, and 0.9 μL 6.6 mM PAPS. SULT2B1b was diluted to 1.5 μg/μL in protein storage buffer then down to 0.8 μg/μL in 1× activity assay buffer. 30 μL of 0.8 μg/μL SULT2B1b was added to each reaction. Reactions were incubated for 2 hours at 37° C. with shaking at 250 rpm. To quench, 30 μL reaction mix was added to 30 μL ice cold 0.5% HCl in MeCN, then centrifuged at 13,000 xg at room temperature for 3 min. 50 μL supernatant was transferred to an empty Eppendorf tube and submitted for LC-MS/MS quantification (UIUC Metabolomics Center). For samples run without BSA, an identical protocol was followed using 26.7 μL 1× assay buffer that had not been supplemented with BSA. Controls: Reaction mix made with DHEA, DMSO in place of compound of interest (DHEA control).
Percent inhibition was calculated as: 100−[100×(DHEA-sulfate producedcompound of interest/DHEA sulfate producedDHEA)].

[2] = system: free cholesterol levels in MCF-7; assay: Whole cell cholesterol assay; assay type: cell-based, human; settings: MCF-7, 6.25 μM, 72 hours
Protocol: Whole Cell Cholesterol Assay. Assay was run according to manufacturer's instructions. Briefly, 5000 MCF-7 cells were plated in 99 μL media in a 96-well plate and allowed to adhere overnight before DMSO solutions of compounds were added to each well. Final concentration of DMSO in each well is 1%, final volume: 100 μL. At the end of 72 hours, media was aspirated, and cells were washed twice with 100 μL PBS. 50 μL of cholesterol lysis solution was added and cells were incubated for 30 minutes at 37° C. 50 μL of sample was then transferred to a 96-well white walled assay plate. 50 μL of cholesterol detection reagent was added to all wells and incubated at room temperature for 1 hour. Luminescence was read using a SpectraMax M3 plate reader (Molecular Devices). Cholesterol levels were determined by use of a cholesterol standard curve.

Chain of SULT2B1b (O00204 whole entry): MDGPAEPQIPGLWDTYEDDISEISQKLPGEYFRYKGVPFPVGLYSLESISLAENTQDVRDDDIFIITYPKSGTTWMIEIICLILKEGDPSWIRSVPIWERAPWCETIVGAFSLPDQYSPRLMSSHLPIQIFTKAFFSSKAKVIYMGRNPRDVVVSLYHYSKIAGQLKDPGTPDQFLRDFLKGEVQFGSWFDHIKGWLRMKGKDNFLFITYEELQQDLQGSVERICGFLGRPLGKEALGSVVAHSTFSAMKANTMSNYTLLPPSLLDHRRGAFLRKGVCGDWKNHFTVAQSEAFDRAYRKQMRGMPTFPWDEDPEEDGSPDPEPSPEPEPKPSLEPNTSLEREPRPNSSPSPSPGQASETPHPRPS

| SMILES | inhibition of hCAII [1] | shift in SULT2B1b inhibition in the presence of BSA (SULT2B1b) | free cholesterol levels vs DMSO [2] |
| --- | --- | --- | --- |
| C[C@]12CCC(=O)N(Cc3ccc(Cl)cc3)C1=CC[C@@H]1[C@@H]2C(=O)C[C@]2(C)C(=O)CC[C@@H]12 [Compound 1, (4aR,4bS,6aS,9aS,9bS)-1-(4-chlorobenzyl)-4a,6a-dimethyl-3,4,4a,6,6a,8,9,9a,9b,10-decahydro-1H-indeno[5,4-f]quinoline-2,5,7(4bH)-trione] | does not inhibit; also recorded: No inhibition | minimal shift; also recorded: no change |  |
| C[C@]12CCC(=O)N(Cc3ccc(Br)cc3)C1=CC[C@@H]1[C@@H]2C(=O)C[C@]2(C)C(=O)CC[C@@H]12 [Compound 3, (4aR,4bS,6aS,9aS,9bS)-1-(4-bromobenzyl)-4a,6a-dimethyl-3,4,4a,6,6a,8,9,9a,9b,10-decahydro-1H-indeno[5,4-f]quinoline-2,5,7(4bH)-trione] |  |  | no statistical difference |
